{"source": "ChEMBL document CHEMBL1139086", "about": "“Synthesis, characterization, antibacterial activity, and interaction with DNA of the vanadyl-enrofloxacin complex” (2007)", "format_in_all_cases": "functional", "key": {"[1]": {"test_system": "Escherichia coli", "experiment": "Antimicrobial activity against Escherichia coli"}, "[2]": {"test_system": "Staphylococcus aureus", "experiment": "Antimicrobial activity against Staphylococcus aureus"}, "[3]": {"test_system": "Pseudomonas aeruginosa", "experiment": "Antimicrobial activity against Pseudomonas aeruginosa"}}}
{"smiles": "CCN1CCN(c2cc3c(cc2F)c(=O)c(C(=O)O)cn3C2CC2)CC1", "note": "[ENROFLOXACIN]", "values": [{"measurement": "MIC", "setting": "[1]", "result": 1, "unit": "µg/mL"}, {"measurement": "MIC", "setting": "[2]", "result": 8, "unit": "µg/mL"}, {"measurement": "MIC", "setting": "[3]", "result": 1, "unit": "µg/mL"}]}
